Laboratory results from PubChem BioAssay (NCI).
Values joined by “and” are separate entries in the source; they are usually repeats but may differ in a detail not shown here. Equal entries are not always repeated.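 96-well plates; 48 h exposure; 5 concentrations. Endpoints by linear interpolation between flanking doses. Not reached: highest tested concentration assigned. Abbreviation: GI50, concentration required for 50% inhibition of growth. TGI is the concentration that stops growth completely.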

Legend:
Assay in all cases: inhibition of tumour cell growth, NCI panel, 48 h
MDA-MB-468 breast = test system: MDA-MB-468 breast
SK-OV-3 ovarian = test system: SK-OV-3 ovarian
NCI-H522 lung = test system: NCI-H522 lung
BT-549 breast = test system: BT-549 breast
EKVX NSCLC = test system: EKVX NSCLC
UO-31 renal = test system: UO-31 renal
A498 renal = test system: A498 renal
SK-MEL-28 melanoma = test system: SK-MEL-28 melanoma
K-562 leukemia = test system: K-562 leukemia
KM12 colon = test system: KM12 colon
TK-10 renal = test system: TK-10 renal
HOP-62 NSCLC = test system: HOP-62 NSCLC
UACC-62 melanoma = test system: UACC-62 melanoma
CAKI-1 renal = test system: CAKI-1 renal
OVCAR-5 ovarian = test system: OVCAR-5 ovarian
NCI-H460 lung = test system: NCI-H460 lung
LOX IMVI melanoma = test system: LOX IMVI melanoma
HL-60(TB) leukemia = test system: HL-60(TB) leukemia
SW-620 colon = test system: SW-620 colon
HOP-92 NSCLC = test system: HOP-92 NSCLC
SNB-75 CNS = test system: SNB-75 CNS
SK-MEL-5 melanoma = test system: SK-MEL-5 melanoma
SF-268 CNS = test system: SF-268 CNS
OVCAR-8 ovarian = test system: OVCAR-8 ovarian
OVCAR-3 ovarian = test system: OVCAR-3 ovarian
COLO 205 colon = test system: COLO 205 colon
IGROV1 ovarian = test system: IGROV1 ovarian
SF-539 CNS = test system: SF-539 CNS
HCT-116 colon = test system: HCT-116 colon
PC-3 prostate = test system: PC-3 prostate
SR leukemia = test system: SR leukemia
HS 578T breast = test system: HS 578T breast
A549 NSCLC = test system: A549 NSCLC
RXF 393 renal = test system: RXF 393 renal
OVCAR-4 ovarian = test system: OVCAR-4 ovarian
MALME-3M melanoma = test system: MALME-3M melanoma
NCI-H23 lung = test system: NCI-H23 lung
SN12C renal = test system: SN12C renal
U251 CNS = test system: U251 CNS
HCC-2998 colon = test system: HCC-2998 colon
MDA-MB-231 breast = test system: MDA-MB-231 breast
HT29 colon = test system: HT29 colon
T-47D breast = test system: T-47D breast
SNB-19 CNS = test system: SNB-19 CNS
SF-295 CNS = test system: SF-295 CNS
MOLT-4 leukemia = test system: MOLT-4 leukemia
UACC-257 melanoma = test system: UACC-257 melanoma
DU-145 prostate = test system: DU-145 prostate
MCF7 breast = test system: MCF7 breast
RPMI-8226 leukemia = test system: RPMI-8226 leukemia
HCT-15 colon = test system: HCT-15 colon
ACHN renal = test system: ACHN renal
CCRF-CEM leukemia = test system: CCRF-CEM leukemia
NCI-H226 lung = test system: NCI-H226 lung
786-0 renal = test system: 786-0 renal

Cn1cc(C2=C(c3cn(C)c4ncccc34)C(=O)NC2=O)c2ccccc21
GI50 (MDA-MB-468 breast): 5470 nM | TGI (MDA-MB-468 breast): > 25000 nM

COc1cc(-c2nn(-c3ccc(NC(=O)c4ccc(Cl)c(C(F)(F)F)c4)cc3)cc2-c2ccncc2)ccc1Cl
GI50 (MDA-MB-468 breast): 2950 nM | TGI (MDA-MB-468 breast): 16000 nM

OCc1ccc(N2CCC2c2ccc(F)cc2)cc1Cl (centres undefined)
GI50 (MDA-MB-468 breast): 30.4 nM | TGI (MDA-MB-468 breast): 251 nM

O=C1CC(c2ccc3c(c2)OCO3)Nc2ccccc21 (centres undefined)
GI50 (MDA-MB-468 breast): 4220 nM | TGI (MDA-MB-468 breast): 23900 nM

COC1CCC(N2C(=O)CNc3ncc(-c4ccc(C(C)(C)O)nc4)nc32)CC1 (centres undefined)
GI50 (MDA-MB-468 breast): 430 nM and 407 nM | TGI (MDA-MB-468 breast): 3510 nM and 5380 nM

O=C(Nc1ccc(Cl)c(Cl)c1)Nc1ccc(Cl)c(Cl)c1
GI50 (MDA-MB-468 breast): 1840 nM and 2210 nM | TGI (MDA-MB-468 breast): 6690 nM and 6100 nM

CCCCCN(CCCCC)CC(O)c1cc(C)c2ccc3cc(C(C)C)ccc3c2c1 (centres undefined)
GI50 (MDA-MB-468 breast): 1740 nM | TGI (MDA-MB-468 breast): 3290 nM

Cc1nc2ccccc2c(N)c1-c1cc(C)c2c(C)nc3ccccc3c2n1
GI50 (MDA-MB-468 breast): 1640 nM | TGI (MDA-MB-468 breast): 3730 nM

CC(C)CCC[C@@H](C)[C@H]1CC[C@H]2[C@@H]3CC=C4C[C@@H](C(C(=O)O)C(=O)O)CC[C@]4(C)[C@H]3CC[C@]12C
GI50 (MDA-MB-468 breast): 337 nM | TGI (MDA-MB-468 breast): 892 nM

Cc1ccc(C(=O)/C(=C/c2ccc([N+](=O)[O-])cc2)SCc2ccc(Cl)cc2)cc1
GI50 (MDA-MB-468 breast): 2760 nM | TGI (MDA-MB-468 breast): 7460 nM

O=C1/C(=C/c2cccc([N+](=O)[O-])c2)COc2ccc(O)cc21
GI50 (MDA-MB-468 breast): 2260 nM | TGI (MDA-MB-468 breast): 5000 nM

NC(=O)c1cccc2cn(-c3ccc([C@@H]4CCCNC4)cc3)nc12
GI50 (MDA-MB-468 breast): 6090 nM | TGI (MDA-MB-468 breast): 18900 nM

NC(=Nc1ccc(OCCCCCCCCn2cnnn2)cc1)c1ccccc1
GI50 (SK-OV-3 ovarian): 439 nM | TGI (SK-OV-3 ovarian): 35900 nM | GI50 (NCI-H522 lung): 201 nM | TGI (NCI-H522 lung): 720 nM | GI50 (BT-549 breast): 836 nM | TGI (BT-549 breast): 18800 nM | GI50 (EKVX NSCLC): 418 nM | TGI (EKVX NSCLC): > 100000 nM | GI50 (UO-31 renal): 555 nM | TGI (UO-31 renal): 40800 nM | GI50 (A498 renal): 17400 nM | TGI (A498 renal): 63400 nM | GI50 (SK-MEL-28 melanoma): 783 nM | TGI (SK-MEL-28 melanoma): > 49200 nM | GI50 (K-562 leukemia): 183 nM | TGI (K-562 leukemia): > 55100 nM | GI50 (KM12 colon): 423 nM | TGI (KM12 colon): > 73100 nM | GI50 (TK-10 renal): 3060 nM | TGI (TK-10 renal): > 83700 nM | GI50 (HOP-62 NSCLC): 439 nM | TGI (HOP-62 NSCLC): 18900 nM | GI50 (UACC-62 melanoma): 442 nM | TGI (UACC-62 melanoma): 19900 nM | GI50 (CAKI-1 renal): 324 nM | TGI (CAKI-1 renal): 46100 nM | GI50 (OVCAR-5 ovarian): 458 nM | TGI (OVCAR-5 ovarian): > 41500 nM | GI50 (NCI-H460 lung): 343 nM | TGI (NCI-H460 lung): 19000 nM | GI50 (LOX IMVI melanoma): 488 nM | TGI (LOX IMVI melanoma): 13900 nM | GI50 (HL-60(TB) leukemia): 246 nM | TGI (HL-60(TB) leukemia): 846 nM | GI50 (SW-620 colon): 352 nM | TGI (SW-620 colon): > 100000 nM | GI50 (HOP-92 NSCLC): 8000 nM | TGI (HOP-92 NSCLC): 59400 nM | GI50 (SNB-75 CNS): 400 nM | TGI (SNB-75 CNS): 50200 nM | GI50 (SK-MEL-5 melanoma): 282 nM | TGI (SK-MEL-5 melanoma): 1420 nM | GI50 (SF-268 CNS): 6870 nM | TGI (SF-268 CNS): > 79700 nM | GI50 (OVCAR-8 ovarian): 490 nM | TGI (OVCAR-8 ovarian): > 64800 nM | GI50 (OVCAR-3 ovarian): 398 nM | TGI (OVCAR-3 ovarian): > 52000 nM | GI50 (COLO 205 colon): 284 nM | TGI (COLO 205 colon): 1860 nM | GI50 (IGROV1 ovarian): 717 nM | TGI (IGROV1 ovarian): 21800 nM | GI50 (SF-539 CNS): 223 nM | TGI (SF-539 CNS): 606 nM | GI50 (HCT-116 colon): 353 nM | TGI (HCT-116 colon): 13800 nM | GI50 (PC-3 prostate): 454 nM | TGI (PC-3 prostate): 97700 nM | GI50 (SR leukemia): 75.2 nM | TGI (SR leukemia): > 50500 nM | GI50 (MDA-MB-468 breast): 167 nM | TGI (MDA-MB-468 breast): 695 nM | GI50 (HS 578T breast): 307 nM | TGI (HS 578T breast): 48800 nM | GI50 (A549 NSCLC): 586 nM | TGI (A549 NSCLC): > 100000 nM | GI50 (RXF 393 renal): 216 nM | TGI (RXF 393 renal): 752 nM | GI50 (OVCAR-4 ovarian): 12400 nM | TGI (OVCAR-4 ovarian): > 100000 nM | GI50 (MALME-3M melanoma): 266 nM | TGI (MALME-3M melanoma): 18200 nM | GI50 (NCI-H23 lung): 436 nM | TGI (NCI-H23 lung): 20100 nM | GI50 (SN12C renal): 472 nM | TGI (SN12C renal): 18200 nM | GI50 (U251 CNS): 383 nM | TGI (U251 CNS): > 63500 nM | GI50 (HCC-2998 colon): 494 nM | TGI (HCC-2998 colon): 11700 nM | GI50 (MDA-MB-231 breast): 439 nM | TGI (MDA-MB-231 breast): 9700 nM | GI50 (HT29 colon): 269 nM | TGI (HT29 colon): 2260 nM | GI50 (T-47D breast): 392 nM | TGI (T-47D breast): 63200 nM | GI50 (SNB-19 CNS): 594 nM | TGI (SNB-19 CNS): > 100000 nM | GI50 (SF-295 CNS): 281 nM | TGI (SF-295 CNS): 12400 nM | GI50 (MOLT-4 leukemia): 460 nM | TGI (MOLT-4 leukemia): > 72200 nM | GI50 (UACC-257 melanoma): 8360 nM | TGI (UACC-257 melanoma): > 60000 nM | GI50 (DU-145 prostate): 438 nM | TGI (DU-145 prostate): > 100000 nM | GI50 (MCF7 breast): 157 nM | TGI (MCF7 breast): 18900 nM | GI50 (RPMI-8226 leukemia): 364 nM | TGI (RPMI-8226 leukemia): 19600 nM | GI50 (HCT-15 colon): 272 nM | TGI (HCT-15 colon): 15400 nM | GI50 (ACHN renal): 659 nM | TGI (ACHN renal): 62000 nM | GI50 (CCRF-CEM leukemia): 358 nM | TGI (CCRF-CEM leukemia): 38200 nM | GI50 (NCI-H226 lung): 321 nM | TGI (NCI-H226 lung): 4550 nM | GI50 (786-0 renal): 507 nM | TGI (786-0 renal): 30900 nM
